One assay concerns the target JH2 domain of human Tyk2 (Homo sapiens (Human), UniProt P29597). Description: JH2 Biochemical Assay (TR-FRET probe displacement). It is filed as binding.
A further assay deals with Tyk2 (Homo sapiens (Human), UniProt P29597). Description: pSTAT4 Cell Assay (MSD, NK92 cells). It is filed as cell-based.
Where [1] appears, read: TR-FRET probe displacement, JH2 domain of human Tyk2.
Setting [2] is: JH2 domain of human Tyk2, TR-FRET probe displacement.
[3] abbreviates: TR-FRET probe displacement, JH2 domain.

Where two headings read alike, the source gives them in different places.

Chain of JH2 domain of human Tyk2 (P29597 575-876): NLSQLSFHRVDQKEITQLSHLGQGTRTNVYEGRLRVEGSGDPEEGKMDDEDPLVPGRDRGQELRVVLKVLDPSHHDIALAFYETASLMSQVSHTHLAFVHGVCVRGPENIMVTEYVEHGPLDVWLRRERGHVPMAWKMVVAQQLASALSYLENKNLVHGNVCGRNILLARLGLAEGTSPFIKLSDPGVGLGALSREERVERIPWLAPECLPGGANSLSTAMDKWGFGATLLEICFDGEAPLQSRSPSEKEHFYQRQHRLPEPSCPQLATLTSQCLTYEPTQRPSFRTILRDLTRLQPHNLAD
Chain of Tyk2 (P29597 whole entry, the tested form may be a part): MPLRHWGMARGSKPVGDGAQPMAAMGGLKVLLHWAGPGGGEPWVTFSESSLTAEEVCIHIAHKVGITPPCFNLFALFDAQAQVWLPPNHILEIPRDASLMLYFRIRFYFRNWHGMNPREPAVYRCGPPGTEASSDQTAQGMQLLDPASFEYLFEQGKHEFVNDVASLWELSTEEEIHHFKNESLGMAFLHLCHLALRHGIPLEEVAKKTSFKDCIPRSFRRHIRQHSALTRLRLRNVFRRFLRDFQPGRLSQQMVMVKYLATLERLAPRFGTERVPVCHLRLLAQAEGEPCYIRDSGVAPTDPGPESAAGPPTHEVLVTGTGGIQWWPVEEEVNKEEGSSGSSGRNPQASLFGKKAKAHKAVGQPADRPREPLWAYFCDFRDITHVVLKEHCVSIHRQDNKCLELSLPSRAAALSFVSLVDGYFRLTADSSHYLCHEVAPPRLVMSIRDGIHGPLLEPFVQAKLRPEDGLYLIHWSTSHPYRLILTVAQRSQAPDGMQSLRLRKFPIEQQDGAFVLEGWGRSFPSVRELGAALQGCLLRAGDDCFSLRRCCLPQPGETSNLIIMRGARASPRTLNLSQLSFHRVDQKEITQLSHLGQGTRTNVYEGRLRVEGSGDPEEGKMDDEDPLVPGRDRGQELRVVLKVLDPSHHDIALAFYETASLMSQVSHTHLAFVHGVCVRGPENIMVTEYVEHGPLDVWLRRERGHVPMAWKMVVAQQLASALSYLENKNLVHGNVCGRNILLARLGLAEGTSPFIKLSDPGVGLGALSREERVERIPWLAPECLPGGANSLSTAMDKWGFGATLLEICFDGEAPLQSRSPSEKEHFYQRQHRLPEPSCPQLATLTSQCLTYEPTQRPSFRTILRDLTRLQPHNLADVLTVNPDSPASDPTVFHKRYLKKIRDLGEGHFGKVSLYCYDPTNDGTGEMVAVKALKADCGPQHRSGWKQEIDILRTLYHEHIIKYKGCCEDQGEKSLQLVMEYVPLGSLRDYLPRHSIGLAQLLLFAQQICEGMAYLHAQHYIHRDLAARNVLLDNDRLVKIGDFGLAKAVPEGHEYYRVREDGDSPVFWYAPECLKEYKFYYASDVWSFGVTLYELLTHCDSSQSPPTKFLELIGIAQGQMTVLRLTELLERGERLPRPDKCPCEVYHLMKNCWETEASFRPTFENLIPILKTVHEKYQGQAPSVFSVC

In the case of `COCCn1nccc1-c1cnc(NC(C)=O)cc1Nc1cc(C)nc(C(C)(F)F)n1` [Example 258, N-(4-((2-(1,1-difluoroethyl)-6-methylpyrimidin-4-yl)amino)-5-(1-(2-methoxyethyl)-1H-pyrazol-5-yl)pyridin-2-yl)acetamide], the half-maximal inhibitory concentration (IC50) at JH2 domain of human Tyk2 (setting [1]) and on Tyk2 (MSD) was 100 to 1000 nM each time.

Take `CC(=O)Nc1cc(Nc2cc(C)nc(C(C)(F)F)n2)c(-c2ccc3c(n2)CCC3=O)cn1` [Example 677, N-(4-((2-(1,1-difluoroethyl)-6-methylpyrimidin-4-yl)amino)-5-(5-oxO6,7-dihydrO5H-cyclopenta[b]pyridin-2-yl)pyridin-2-yl)acetamide]: the IC50 on JH2 domain of human Tyk2 (setting [2]) and against Tyk2 (MSD) was not above 10 nM throughout.

Regarding `CCc1cc(Nc2cc(NC(C)=O)ncc2-c2ccc(N(C)C)nn2)nc(C(C)(F)F)n1` [Example 862, N-(4-((2-(1,1-difluoroethyl)-6-ethylpyrimidin-4-yl)amino)-5-(6-(dimethylamino)pyridazin-3-yl)pyridin-2-yl)acetamide], the IC50 on JH2 domain of human Tyk2 (setting [3]) and against Tyk2 was not above 10 nM in each case.

Turning to `CC(=O)Nc1cc(Nc2cc(C)nc(C(C)(F)F)n2)c(-c2ccn3ncnc3n2)cn1` [Example 536, N-(5-([1,2,4]triazolo[1,5-a]pyrimidin-5-yl)-4-((2-(1,1-difluoroethyl)-6-methylpyrimidin-4-yl)amino)pyridin-2-yl)acetamide], the IC50 on JH2 domain of human Tyk2 (setting [2]) and against Tyk2 (MSD) was not above 10 nM each time.

Consider `CC(=O)Nc1cc(Nc2cc(C)nc(C(C)(F)F)n2)c(OCC(C)OC(C)(C)C)cn1` (centres unmarked) [Example 427, N-(5-(2-(tert-butoxy)propoxy)-4-((2-(1,1-difluoroethyl)-6-methylpyrimidin-4-yl)amino)pyridin-2-yl)acetamide], for which the IC50 was not above 10 nM on JH2 domain of human Tyk2 (setting [2]) and 10 to 100 nM against Tyk2 (MSD).

Regarding `COc1cc(Nc2cc(NC(C)=O)ncc2OC)nc(C(C)(F)F)n1` [Example 18, N-(4-((2-(1,1-difluoroethyl)-6-methoxypyrimidin-4-yl)amino)-5-methoxypyridin-2-yl)acetamide], the IC50 at JH2 domain of human Tyk2 (setting [1]) was not above 10 nM; against Tyk2 (MSD), 10 to 100 nM.

With `COCc1cnc(NC(C)=O)cc1Nc1cc(C)nc(C(C)(F)F)n1` [Example 47, N-(4-((2-(1,1-difluoroethyl)-6-methylpyrimidin-4-yl)amino)-5-(methoxymethyl)pyridin-2-yl)acetamide], the values for the IC50 on JH2 domain of human Tyk2 (setting [1]) and against Tyk2 (MSD) were 10 to 100 nM and not below 1000 nM, respectively.

On to `CCN1CCn2nc(-c3cnc(NC(C)=O)cc3Nc3cc(C)nc(C(C)(F)F)n3)cc2C1` [Example 283, N-(4-((2-(1,1-difluoroethyl)-6-methylpyrimidin-4-yl)amino)-5-(5-ethyl-4,5,6,7-tetrahydropyrazolo[1,5-a]pyrazin-2-yl)pyridin-2-yl)acetamide], for which the IC50 on JH2 domain of human Tyk2 (setting [1]) and against Tyk2 (MSD) was not above 10 nM in each case.

Turning to `CC(=O)Nc1cc(Nc2ccnc(C(C)(F)F)n2)c(-c2coc(C)n2)cn1` [Example 581, N-(4-((2-(1,1-difluoroethyl)pyrimidin-4-yl)amino)-5-(2-methyloxazol-4-yl)pyridin-2-yl)acetamide], the IC50 is not above 10 nM on JH2 domain of human Tyk2 (setting [2]) and 10 to 100 nM on Tyk2 (MSD).

Take `COc1cncc(Oc2cnc(NC(C)=O)cc2Nc2cc(C)nc(C(C)(F)F)n2)n1` [Example 357, N-(4-((2-(1,1-difluoroethyl)-6-methylpyrimidin-4-yl)amino)-5-((6-methoxypyrazin-2-yl)oxy)pyridin-2-yl)acetamide]: the IC50 at JH2 domain of human Tyk2 (setting [1]) was 10 to 100 nM; against Tyk2 (MSD) it was not below 1000 nM.

In the case of `COC1CC(COc2cnc(NC(C)=O)cc2Nc2cc(C)nc(C(C)(F)F)n2)C1` (centres unmarked) [Example 40, N-(4-((2-(1,1-difluoroethyl)-6-methylpyrimidin-4-yl)amino)-5-((3-methoxycyclobutyl)methoxy)pyridin-2-yl)acetamide], the IC50 at JH2 domain of human Tyk2 (setting [1]) is not above 10 nM; against Tyk2 (MSD), 10 to 100 nM.

Regarding `CC(=O)Nc1cc(Nc2cc(C)nc(C(C)(F)F)n2)c(OCc2cnn(C3CCC3)c2)cn1` [Example 354, N-(5-((1-cyclobutyl-1H-pyrazol-4-yl)methoxy)-4-((2-(1,1-difluoroethyl)-6-methylpyrimidin-4-yl)amino)pyridin-2-yl)acetamide], the results for the IC50 at JH2 domain of human Tyk2 (setting [1]) and on Tyk2 (MSD) were not above 10 nM and 100 to 1000 nM, respectively.

As for `CCOc1cnc(NC(C)=O)cc1Nc1cc(O[C@H]2C[C@@H](F)C2)nc(C(C)(F)F)n1` [Example 458, N-(4-((2-(1,1-difluoroethyl)-6-((1s,3s)-3-fluorocyclobutoxy)pyrimidin-4-yl)amino)-5-ethoxypyridin-2-yl)acetamide], the IC50 on JH2 domain of human Tyk2 (setting [2]) and against Tyk2 (MSD) was not above 10 nM throughout.

Turning to `CC(=O)Nc1cc(Nc2cc(C(C)C)nc(C(C)(F)F)n2)c(O[C@H]2C[C@H](F)C2)cn1` [Example 410, N-(4-((2-(1,1-difluoroethyl)-6-isopropylpyrimidin-4-yl)amino)-5-((1r,3r)-3-fluorocyclobutoxy)pyridin-2-yl)acetamide], the IC50 at JH2 domain of human Tyk2 (setting [2]) and against Tyk2 (MSD) was not above 10 nM in each case.

For the compound `CC(=O)Nc1cc(Nc2cc(OC3CC3)nc(C(C)(F)F)n2)c(OCc2ccccc2)cn1` [Example 487, N-(5-(benzyloxy)-4-((6-cyclopropoxy-2-(1,1-difluoroethyl)pyrimidin-4-yl)amino)pyridin-2-yl)acetamide], the IC50 on JH2 domain of human Tyk2 (setting [2]) and at Tyk2 (MSD) was not above 10 nM each time.

Regarding `COc1cccnc1COc1cnc(NC(C)=O)cc1Nc1cc(C)nc(C(C)(F)F)n1` [Example 472, N-(4-((2-(1,1-difluoroethyl)-6-methylpyrimidin-4-yl)amino)-5-((3-methoxypyridin-2-yl)methoxy)pyridin-2-yl)acetamide], the concentration for half-maximal inhibition (IC50) is 10 to 100 nM at JH2 domain of human Tyk2 (setting [2]) and 100 to 1000 nM at Tyk2 (MSD).

Consider `CC(=O)Nc1cc(Nc2cc(C)nc(C(C)(F)F)n2)c(-c2csc(N3CCOCC3)n2)cn1` [Example 234, N-(4-((2-(1,1-difluoroethyl)-6-methylpyrimidin-4-yl)amino)-5-(2-morpholinothiazol-4-yl)pyridin-2-yl)acetamide], for which the 50% inhibitory concentration (IC50) at JH2 domain of human Tyk2 (setting [1]) and against Tyk2 (MSD) was not above 10 nM throughout.

As to `CC(=O)Nc1cc(Nc2cc(C)nc(C(C)(F)F)n2)c(-c2csc(N3CCN(C)CC3)n2)cn1` [Example 771, N-(4-((2-(1,1-difluoroethyl)-6-methylpyrimidin-4-yl)amino)-5-(2-(4-methylpiperazin-1-yl)thiazol-4-yl)pyridin-2-yl)acetamide], the IC50 at JH2 domain of human Tyk2 (setting [3]) and at Tyk2 was not above 10 nM each time.

On to `CC(=O)Nc1cc(Nc2cc(C)nc(C(C)(F)F)n2)c(OCCF)cn1` [Example 404, N-(4-((2-(1,1-difluoroethyl)-6-methylpyrimidin-4-yl)amino)-5-(2-fluoroethoxy)pyridin-2-yl)acetamide], for which the values for the IC50 on JH2 domain of human Tyk2 (setting [2]) and at Tyk2 (MSD) were not above 10 nM and 10 to 100 nM, respectively.

Turning to `CC(=O)Nc1cc(Nc2cc(C)nc(C(C)(F)F)n2)c(-c2cnc(CN3CCCC3)cn2)cn1` [Example 791, N-(4-((2-(1,1-difluoroethyl)-6-methylpyrimidin-4-yl)amino)-5-(5-(pyrrolidin-1-ylmethyl)pyrazin-2-yl)pyridin-2-yl)acetamide], the IC50 at JH2 domain of human Tyk2 (setting [3]) and against Tyk2 was not above 10 nM in each case.

Regarding `CC(=O)Nc1cc(Nc2cc(C)nc(C(C)(F)F)n2)c(OC2CCN(C)C2)cn1` (centres unmarked) [Example 478, N-(4-((2-(1,1-difluoroethyl)-6-methylpyrimidin-4-yl)amino)-5-((1-methylpyrrolidin-3-yl)oxy)pyridin-2-yl)acetamide], the results for the IC50 on JH2 domain of human Tyk2 (setting [2]) and against Tyk2 (MSD) were not above 10 nM and 100 to 1000 nM, respectively.

With `[2H]C([2H])([2H])C([2H])([2H])Oc1cnc(NC(C)=O)cc1Nc1cc(-c2cnn(C(C)C)c2)nc(C(C)(F)F)n1` [Example 361, N-(4-((2-(1,1-difluoroethyl)-6-(1-isopropyl-1H-pyrazol-4-yl)pyrimidin-4-yl)amino)-5-(ethoxy-d5)pyridin-2-yl)acetamide], the IC50 at JH2 domain of human Tyk2 (setting [1]) and at Tyk2 (MSD) was not above 10 nM in each case.

Consider `CC(=O)Nc1cc(Nc2cc(C)nc(C(C)(F)F)n2)c(OCCCF)cn1` [Example 295, N-(4-((2-(1,1-difluoroethyl)-6-methylpyrimidin-4-yl)amino)-5-(3-fluoropropoxy)pyridin-2-yl)acetamide], for which the IC50 on JH2 domain of human Tyk2 (setting [1]) is not above 10 nM; at Tyk2 (MSD), 10 to 100 nM.

For `CC(=O)Nc1cc(Nc2ccnc(C(C)(F)F)n2)c(-c2cnc(C(C)(F)F)cn2)cn1` [Example 695, N-(5-(5-(1,1-difluoroethyl)pyrazin-2-yl)-4-((2-(1,1-difluoroethyl)pyrimidin-4-yl)amino)pyridin-2-yl)acetamide], the IC50 at JH2 domain of human Tyk2 (setting [2]) was not above 10 nM; at Tyk2 (MSD), 100 to 1000 nM.

Consider `COc1nc(-c2cnc(NC(C)=O)cc2Nc2ccnc(C(C)(F)F)n2)cs1` [Example 712, N-(4-((2-(1,1-difluoroethyl)pyrimidin-4-yl)amino)-5-(2-methoxythiazol-4-yl)pyridin-2-yl)acetamide], for which the IC50 on JH2 domain of human Tyk2 (setting [2]) and on Tyk2 (MSD) was not above 10 nM throughout.

For the compound `COCCn1ncc(-c2cnc(NC(C)=O)cc2Nc2cc(OC3CC3)nc(C(C)(F)F)n2)n1` [Example 587, N-(4-((6-cyclopropoxy-2-(1,1-difluoroethyl)pyrimidin-4-yl)amino)-5-(2-(2-methoxyethyl)-2H-1,2,3-triazol-4-yl)pyridin-2-yl)acetamide], the IC50 on JH2 domain of human Tyk2 (setting [2]) and against Tyk2 (MSD) was not above 10 nM in each case.

Consider `COc1nccc(-c2cnc(NC(C)=O)cc2Nc2cc(C)nc(C(C)(F)F)n2)n1` [Example 179, N-(4-((2-(1,1-difluoroethyl)-6-methylpyrimidin-4-yl)amino)-5-(2-methoxypyrimidin-4-yl)pyridin-2-yl)acetamide], for which the IC50 on JH2 domain of human Tyk2 (setting [1]) and at Tyk2 (MSD) was not above 10 nM each time.

In the case of `CC(=O)Nc1cc(Nc2cc(C)nc(C(C)(F)F)n2)c(-c2ccn(CC3CC3)n2)cn1` [Example 614, N-(5-(1-(cyclopropylmethyl)-1H-pyrazol-3-yl)-4-((2-(1,1-difluoroethyl)-6-methylpyrimidin-4-yl)amino)pyridin-2-yl)acetamide], the IC50 at JH2 domain of human Tyk2 (setting [2]) and against Tyk2 (MSD) was not above 10 nM in each case.

The record behind these values is patent US20260028365A1 (BIOGEN MA INC., priority 2022, published 2026).
